The values below come from publication PMC6934184, “Selective DNA-PKcs inhibition extends the therapeutic index of localized radiotherapy and chemotherapy” (The Journal of Clinical Investigation, 2019).

Broadly, the inhibition is the change of the read-out against control, counted positive when it falls.

The target of this experiment is T1, SRPK2 (Homo sapiens, UniProt P78362).
T1 construct: purchased Thermo Fisher Scientific (Life Technologies) SelectScreen
Nature of the experiment: SelectScreen Z'LYTE. The format is biochemical. An outline of the steps: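 NU5455 was profiled across the SelectScreen Broad panel of kinase activity and binding assays. Z'LYTE reactions such as CSF1R ran at apparent Km ATP, while the Adapta CAMK1 assay used ATP listed as 10. Values are given as percent.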

T1 sequence (P78362 whole entry): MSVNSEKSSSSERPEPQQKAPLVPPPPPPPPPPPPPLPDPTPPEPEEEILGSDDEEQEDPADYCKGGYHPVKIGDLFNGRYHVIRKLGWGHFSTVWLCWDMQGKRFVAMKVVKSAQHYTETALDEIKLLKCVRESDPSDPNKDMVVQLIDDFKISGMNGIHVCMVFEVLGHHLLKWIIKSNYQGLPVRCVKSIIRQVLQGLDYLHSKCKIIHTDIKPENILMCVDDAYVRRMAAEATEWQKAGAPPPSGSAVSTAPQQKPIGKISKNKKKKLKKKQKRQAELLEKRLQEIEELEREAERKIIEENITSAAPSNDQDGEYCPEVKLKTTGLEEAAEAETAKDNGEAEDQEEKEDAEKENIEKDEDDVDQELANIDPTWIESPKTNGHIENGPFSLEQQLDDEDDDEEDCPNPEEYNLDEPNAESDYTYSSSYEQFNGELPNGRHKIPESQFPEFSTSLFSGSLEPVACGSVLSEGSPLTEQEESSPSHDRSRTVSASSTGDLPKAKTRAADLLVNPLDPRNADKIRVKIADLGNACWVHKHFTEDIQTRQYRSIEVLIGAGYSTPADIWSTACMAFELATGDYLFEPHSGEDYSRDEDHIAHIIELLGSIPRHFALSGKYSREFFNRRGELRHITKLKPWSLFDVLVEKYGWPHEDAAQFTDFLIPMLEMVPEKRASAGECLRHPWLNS

The compound `CN(C(=O)CN1CCOCC1)c1ccc2sc3c(-c4cccc5c(=O)cc(N6CC7CCC(C6)O7)oc45)cccc3c2c1` [NU5455] gave an inhibition at 1 µM of 3.9%.
